The values below come from PubChem BioAssay (NCI).

Test systems include COLO 205 colon; HS 578T breast; KM12 colon; MCF7 breast; NCI-H226 lung; NCI-H23 lung; RPMI-8226 leukemia; SW-620 colon; T-47D breast; UO-31 renal.
Holding throughout (test): DTP human tumour cell line panel, 48 h

Several values for one entry are separate records, joined by “and”; a condition that tells them apart may be missing. Equal values may be shown once.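 Grown in 96-well plates, cells were treated for 48 hours with each compound at five concentrations. Insufficient inhibition: endpoint recorded as highest concentration tested. GI50 = concentration required for 50% inhibition of growth. TGI is the concentration that stops growth completely.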

As for `O=C(Nc1cc(C(F)(F)F)ccc1Cl)c1ccc(NC2=C(Cl)C(=O)N(Cc3ccccc3)C2=O)cc1`, the GI50 is 16 µM in the test with COLO 205 colon; 31.9 µM with HS 578T breast; 23.7 µM in the test with KM12 colon; 11.6 µM with MCF7 breast; 13.9 µM in the test on NCI-H226 lung; 18.9 µM in the test with NCI-H23 lung. The GI50 was 2.65 µM in the test on RPMI-8226 leukemia, 6.72 µM with SW-620 colon and 14.1 µM with T-47D breast. Further, the TGI in the test on COLO 205 colon is 35.6 µM; in the test with HS 578T breast, above 100 µM; in the test on KM12 colon, 74.9 µM; with MCF7 breast it was above 100 µM; with NCI-H226 lung it was 65.5 µM; in the test on NCI-H23 lung, 43.9 µM. The figures for the TGI with RPMI-8226 leukemia, with SW-620 colon and in the test with T-47D breast were 8.51 µM, above 100 µM and above 100 µM, respectively.
As for `CCN(CC)CCCNc1ccc2nc(C)n3c4ccc(O)cc4c(=O)c1c23`, the TGI in the test on COLO 205 colon was found to be 20.3 µM; in the test with HS 578T breast it was 29 µM; with KM12 colon it was 17.4 µM; in the test on MCF7 breast it was 17.6 µM; in the test with NCI-H226 lung, 21.4 µM; in the test on NCI-H23 lung, 15.8 µM. Besides, the TGI with RPMI-8226 leukemia is 10.8 µM; with SW-620 colon, 14.9 µM; with T-47D breast, 31.4 µM; in the test on UO-31 renal it was 19.3 µM.
As to `CC[n+]1oc(C(=O)c2ccc(Cl)cc2)c(-c2ccccc2)c1-c1ccccc1.[Cl][Fe]([Cl])([Cl])[Cl]`, the GI50 in the test with COLO 205 colon is 50.7 µM; in the test with HS 578T breast, 34.5 µM; with KM12 colon, 89.9 µM; in the test with MCF7 breast, 17.4 µM; in the test with NCI-H226 lung it was 75.2 µM; in the test on NCI-H23 lung, 45.7 µM. The GI50 with RPMI-8226 leukemia was 19.6 µM; with SW-620 colon it was above 100 µM; in the test with T-47D breast it was 0.462 µM; in the test on UO-31 renal, 2.23 µM. In addition, the TGI with COLO 205 colon is above 100 µM; with HS 578T breast, above 100 µM; in the test on KM12 colon, above 100 µM; in the test with MCF7 breast it was 65.5 µM; with NCI-H226 lung, above 100 µM; in the test with NCI-H23 lung, above 100 µM. Besides, the TGI in the test on RPMI-8226 leukemia is 54.2 µM; in the test with SW-620 colon it was above 100 µM; in the test with T-47D breast it was 35.1 µM; in the test on UO-31 renal it was 21.5 µM.
For `O=S(=O)(NCCNc1nccc(-c2c(-c3ccc(F)c(O)c3)nc3sccn23)n1)c1ccc(F)cc1`, the GI50 with COLO 205 colon is 5.62 µM; in the test on HS 578T breast it was 2.94 µM; with KM12 colon, 2.89 µM; with MCF7 breast, 2.17 µM; in the test with NCI-H226 lung, 4.01 µM; in the test with NCI-H23 lung, 4.07 µM. For the same compound, the GI50 in the test with RPMI-8226 leukemia was 1.78 µM; in the test on SW-620 colon, 5.22 µM; in the test with T-47D breast it was 5.02 µM; with UO-31 renal, 4.02 µM. For the same compound, the TGI in the test with COLO 205 colon was found to be 36.1 µM; in the test on HS 578T breast it was 8.81 µM; in the test with KM12 colon, 14.6 µM; in the test with MCF7 breast it was 12.2 µM; in the test on NCI-H226 lung, 20.4 µM; in the test on NCI-H23 lung it was 22.4 µM. The TGI in the test on RPMI-8226 leukemia was found to be 4.24 µM; in the test with SW-620 colon it was 30.4 µM; in the test with T-47D breast, 28 µM; with UO-31 renal it was 15.1 µM.
For the compound `[C](#Cc1ccccc1)[Hg][C]#Cc1ccccc1`, the GI50 was 22.2 µM in the test with COLO 205 colon; above 100 µM with HS 578T breast; 94.1 µM in the test with KM12 colon; 10.4 µM in the test with MCF7 breast; 28.1 µM in the test on NCI-H226 lung; 37.8 µM in the test with NCI-H23 lung. In addition, the GI50 with RPMI-8226 leukemia was 13.1 µM; with SW-620 colon, 35.5 µM; with T-47D breast, 28.8 µM; in the test with UO-31 renal it was 32.5 µM. The TGI in the test with COLO 205 colon is 48 µM; with HS 578T breast it was above 100 µM; with KM12 colon, above 100 µM; in the test on MCF7 breast, 56.9 µM; in the test on NCI-H226 lung, 63.2 µM; with NCI-H23 lung, above 100 µM. Moreover, the TGI in the test with RPMI-8226 leukemia is above 100 µM; in the test with SW-620 colon, above 100 µM; in the test on T-47D breast, 79.1 µM; in the test with UO-31 renal, 74.6 µM.
Consider `Cc1[nH]nc(C(F)(F)F)c1N=NN(C)C`, for which the TGI in the test with COLO 205 colon was determined as 10.7 µM; in the test with HS 578T breast, 44.6 µM; with KM12 colon, 29.3 µM; with MCF7 breast, 14.6 µM; with NCI-H226 lung, 6.36 µM; in the test on NCI-H23 lung, 21.9 µM. Also, the TGI is 5.15 µM in the test on RPMI-8226 leukemia, above 100 µM in the test with SW-620 colon, above 100 µM with T-47D breast and 5.03 µM in the test with UO-31 renal.
On to `NC(=O)N/N=C(/CC1C(=O)Oc2ccccc21)c1ccccc1O` (stereo not given), for which the TGI with COLO 205 colon was above 100 µM; with HS 578T breast, above 100 µM; with KM12 colon it was above 100 µM; in the test with MCF7 breast it was above 100 µM; in the test on NCI-H226 lung it was 82.5 µM; with NCI-H23 lung, above 100 µM. Moreover, the TGI in the test on RPMI-8226 leukemia is 34.9 µM; in the test on SW-620 colon, above 100 µM; in the test with T-47D breast it was above 100 µM; in the test with UO-31 renal, above 100 µM.
Turning to `CC1CCC2(NC1)OC1CC3C4CC=C5CC(O)CCC5(C)C4CCC3(C)C1C2C` (stereo not given), the TGI is above 100 µM in the test on COLO 205 colon; > 100 µM and 37 µM in the test on HS 578T breast; 47.4 µM and 64.4 µM in the test on KM12 colon; above 100 µM with MCF7 breast; > 100 µM and 66.5 µM in the test on NCI-H226 lung; above 100 µM in the test on NCI-H23 lung. The TGI in the test with RPMI-8226 leukemia is 93.3 µM and 70.2 µM; in the test on SW-620 colon, above 100 µM; with T-47D breast, 49 µM and 48.9 µM; in the test with UO-31 renal, 37.8 µM and 13.8 µM. In addition, the GI50 with KM12 colon is 14 µM and 6.75 µM; in the test with UO-31 renal, 18.2 µM and 6.3 µM.
With `O=C(NOC[C@H](O)CO)c1ccc(F)c(F)c1Nc1ccc(I)cc1F`, the GI50 was < 0.01 µM and 0.00143 µM in the test on COLO 205 colon; 34.5 µM and > 2.97 µM in the test on HS 578T breast; 0.0456 µM and 0.036 µM in the test with KM12 colon; above 76.5 µM with MCF7 breast; 0.717 µM and 1.43 µM with NCI-H226 lung; 0.0188 µM and 0.0537 µM with NCI-H23 lung. Besides, the GI50 was 35.9 µM and > 10 µM with RPMI-8226 leukemia; < 0.01 µM and 0.00315 µM in the test on SW-620 colon; 51.5 µM and > 4.02 µM with T-47D breast; 0.302 µM and 0.0357 µM in the test on UO-31 renal. Further, the TGI in the test on COLO 205 colon, in the test with HS 578T breast, with KM12 colon, with MCF7 breast, in the test with NCI-H226 lung and in the test on NCI-H23 lung was above 100 µM each time. The TGI is above 100 µM with RPMI-8226 leukemia, above 100 µM with SW-620 colon, above 100 µM in the test on T-47D breast and above 72.2 µM with UO-31 renal.
Take `O=C(/C=C/C12c3ccccc3C(c3ccccc31)C1C(=O)NC(=O)C12)c1ccc(Cl)cc1Cl` (stereo not given): the GI50 was 2.2 µM with COLO 205 colon; 2.76 µM in the test on HS 578T breast; 1.76 µM with KM12 colon; 1.72 µM in the test with MCF7 breast; 2.14 µM with NCI-H226 lung; 2.02 µM in the test on NCI-H23 lung. The GI50 was 1.68 µM with RPMI-8226 leukemia, 2.19 µM in the test with SW-620 colon, 2.48 µM in the test on T-47D breast and 1.4 µM in the test with UO-31 renal. Further, the TGI in the test on COLO 205 colon was found to be 4.24 µM; in the test on HS 578T breast it was 7.01 µM; with KM12 colon it was 3.43 µM; with MCF7 breast, 3.79 µM; in the test on NCI-H226 lung, 5.91 µM; in the test with NCI-H23 lung, 4.1 µM. Besides, the TGI in the test on RPMI-8226 leukemia stood at 4.41 µM; in the test with SW-620 colon it was 4.58 µM; in the test on T-47D breast it was 9.59 µM; in the test with UO-31 renal, 2.71 µM.
Consider `CCOC(=O)Nc1nc2ccc(OC)cc2s1`, for which the GI50 in the test on COLO 205 colon, with HS 578T breast, in the test on KM12 colon, with MCF7 breast, with NCI-H226 lung and in the test with NCI-H23 lung was above 100 µM each time. Moreover, the GI50 in the test on RPMI-8226 leukemia, in the test on SW-620 colon, in the test on T-47D breast and with UO-31 renal was above 100 µM throughout. Besides, the TGI in the test with COLO 205 colon, in the test with HS 578T breast, in the test on KM12 colon, in the test with MCF7 breast, with NCI-H226 lung and in the test on NCI-H23 lung was above 100 µM throughout. Moreover, the TGI with RPMI-8226 leukemia, in the test with SW-620 colon, in the test with T-47D breast and with UO-31 renal was above 100 µM each time.
For `COc1cc(F)c(F)c(Nc2ccc(I)cc2F)c1NS(=O)(=O)C1(C[C@H](O)CO)CC1`, the GI50 with COLO 205 colon was 0.0234 µM; in the test on HS 578T breast, above 5.43 µM; in the test with KM12 colon, 0.371 µM; in the test with MCF7 breast, above 5.31 µM; in the test on NCI-H226 lung, above 3.42 µM; in the test with NCI-H23 lung, 0.283 µM. For the same compound, the GI50 was 2.66 µM in the test on RPMI-8226 leukemia, 0.0591 µM in the test with SW-620 colon, above 4.02 µM in the test with T-47D breast and 0.295 µM in the test on UO-31 renal. For the same compound, the TGI is above 2.51 µM with COLO 205 colon; above 10 µM in the test with HS 578T breast; above 10 µM in the test on KM12 colon; above 10 µM with MCF7 breast; above 10 µM in the test with NCI-H226 lung; above 10 µM in the test on NCI-H23 lung. Besides, the TGI was above 10 µM in the test on RPMI-8226 leukemia, above 10 µM with SW-620 colon, above 9.3 µM with T-47D breast and above 10 µM in the test on UO-31 renal.
With `COc1ccccc1C#Cc1ccccc1C#CCCCCO`, the GI50 with COLO 205 colon was 18.3 µM; in the test with HS 578T breast it was 17 µM; in the test with KM12 colon, 23.1 µM; in the test with MCF7 breast it was 31.7 µM; in the test with NCI-H226 lung it was 21.4 µM; with NCI-H23 lung it was 19.1 µM. Besides, the GI50 in the test with RPMI-8226 leukemia was 20 µM; in the test with SW-620 colon, 19.2 µM; with T-47D breast, 18.5 µM; with UO-31 renal it was 16.8 µM. The TGI in the test with COLO 205 colon was 37.7 µM; with HS 578T breast it was 55.4 µM; with KM12 colon, 57.8 µM; in the test with MCF7 breast, above 100 µM; in the test with NCI-H226 lung, 49.2 µM; with NCI-H23 lung it was 37.7 µM. In addition, the TGI in the test with RPMI-8226 leukemia was above 100 µM; with SW-620 colon it was 46.4 µM; in the test on T-47D breast, 65.8 µM; in the test with UO-31 renal, 32.8 µM.

The term GI50 denotes the concentration at which growth is held to half of that of the control. Usually TGI stands for the concentration at which net growth stops. Lower therefore signals greater sensitivity of the cells.
